The NIST ThermoML archive (doi:10.1021/je049973v)

Details: Liquid; for speed of sound: Pulse-echo method; for mass density: Vibrating tube method

CCCCCCCCCCCCCCCCCCc1ccccc1 [octadecylbenzene]
Details	mass density [kg/m3]	speed of sound [m/s]
313.15 K, 100 kPa	840.55	1392.9
313.15 K, 5000 kPa	843.37	–
313.15 K, 10000 kPa	846.27	1439.6
313.15 K, 15000 kPa	849.15	–
313.15 K, 20000 kPa	–	1484.1
313.15 K, 25000 kPa	854.46	–
313.15 K, 30000 kPa	856.89	1525.8
313.15 K, 35000 kPa	859.36	–
313.15 K, 40000 kPa	861.48	1564.8
313.15 K, 45000 kPa	864.12	–
313.15 K, 50000 kPa	866.37	1602.4
313.15 K, 55000 kPa	868.59	–
313.15 K, 60000 kPa	870.16	1638.1
313.15 K, 70000 kPa	–	1672.1
313.15 K, 80000 kPa	–	1704.7
323.15 K, 100 kPa	833.94	1357.8
323.15 K, 5000 kPa	836.91	–
323.15 K, 10000 kPa	840.02	1406.8
323.15 K, 15000 kPa	842.88	–
323.15 K, 20000 kPa	–	1452.4
323.15 K, 25000 kPa	848.32	–
323.15 K, 30000 kPa	850.96	1495.5
323.15 K, 35000 kPa	853.46	–
323.15 K, 40000 kPa	856	1535.6
323.15 K, 45000 kPa	858.41	–
323.15 K, 50000 kPa	860.91	1574
323.15 K, 55000 kPa	863.12	–
323.15 K, 60000 kPa	865.36	1610.3
323.15 K, 70000 kPa	–	1645.1
323.15 K, 80000 kPa	–	1678.7
323.15 K, 90000 kPa	–	1710.4
323.15 K, 100000 kPa	–	1741.3
323.15 K, 110000 kPa	–	1771.2
323.15 K, 120000 kPa	–	1799.2
333.15 K, 100 kPa	827.32	1325.5
333.15 K, 5000 kPa	830.4	–
333.15 K, 10000 kPa	833.56	1374.8
333.15 K, 15000 kPa	836.59	–
333.15 K, 20000 kPa	–	1422.6
333.15 K, 25000 kPa	842.3	–
333.15 K, 30000 kPa	845.04	1466.1
333.15 K, 35000 kPa	847.71	–
333.15 K, 40000 kPa	850.3	1507.5
333.15 K, 45000 kPa	852.76	–
333.15 K, 50000 kPa	855.26	1546.7
333.15 K, 55000 kPa	857.46	–
333.15 K, 60000 kPa	859.86	1583.5
333.15 K, 70000 kPa	–	1619.1
333.15 K, 80000 kPa	–	1652.8
333.15 K, 90000 kPa	–	1685.7
333.15 K, 100000 kPa	–	1717
333.15 K, 110000 kPa	–	1747.3
333.15 K, 120000 kPa	–	1775.7
333.15 K, 130000 kPa	–	1803.9
333.15 K, 140000 kPa	–	1830.9
333.15 K, 150000 kPa	–	1857.5
343.15 K, 100 kPa	820.78	1292.7
343.15 K, 5000 kPa	824.1	–
343.15 K, 10000 kPa	827.33	1344.1
343.15 K, 15000 kPa	830.48	–
343.15 K, 20000 kPa	–	1392.8
343.15 K, 25000 kPa	836.54	–
343.15 K, 30000 kPa	839.35	1437.7
343.15 K, 35000 kPa	841.97	–
343.15 K, 40000 kPa	844.62	1480.2
343.15 K, 45000 kPa	847.32	–
343.15 K, 50000 kPa	849.82	1519.9
343.15 K, 55000 kPa	852.25	–
343.15 K, 60000 kPa	854.6	1558.1
343.15 K, 70000 kPa	–	1594.2
343.15 K, 80000 kPa	–	1628.6
343.15 K, 90000 kPa	–	1661.5
343.15 K, 100000 kPa	–	1693.1
343.15 K, 110000 kPa	–	1723.6
343.15 K, 120000 kPa	–	1753.5
343.15 K, 130000 kPa	–	1781.9
343.15 K, 140000 kPa	–	1809.4
343.15 K, 150000 kPa	–	1836.3
353.15 K, 100 kPa	814.1	1260.7
353.15 K, 5000 kPa	817.72	–
353.15 K, 10000 kPa	821.14	1313.4
353.15 K, 15000 kPa	824.47	–
353.15 K, 20000 kPa	–	1364.1
353.15 K, 25000 kPa	830.64	–
353.15 K, 30000 kPa	833.58	1410
353.15 K, 35000 kPa	836.52	–
353.15 K, 40000 kPa	839.12	1454
353.15 K, 45000 kPa	841.72	–
353.15 K, 50000 kPa	844.35	1494.4
353.15 K, 55000 kPa	846.91	–
353.15 K, 60000 kPa	849.39	1532.6
353.15 K, 70000 kPa	–	1569.2
353.15 K, 80000 kPa	–	1604.3
353.15 K, 90000 kPa	–	1638.2
353.15 K, 100000 kPa	–	1670.3
353.15 K, 110000 kPa	–	1701.4
353.15 K, 120000 kPa	–	1731.3
353.15 K, 130000 kPa	–	1759.9
353.15 K, 140000 kPa	–	1788.8
353.15 K, 150000 kPa	–	1815.1
363.15 K, 100 kPa	807.7	1229.5
363.15 K, 5000 kPa	811.19	–
363.15 K, 10000 kPa	814.87	1284.8
363.15 K, 15000 kPa	818.14	–
363.15 K, 20000 kPa	–	1334.9
363.15 K, 25000 kPa	824.7	–
363.15 K, 30000 kPa	827.83	1382.7
363.15 K, 35000 kPa	830.62	–
363.15 K, 40000 kPa	833.38	1427.1
363.15 K, 45000 kPa	836.17	–
363.15 K, 50000 kPa	838.78	1469.1
363.15 K, 55000 kPa	841.42	–
363.15 K, 60000 kPa	843.92	1508.3
363.15 K, 70000 kPa	–	1545.7
363.15 K, 80000 kPa	–	1581.7
363.15 K, 90000 kPa	–	1615.7
363.15 K, 100000 kPa	–	1648.3
363.15 K, 110000 kPa	–	1679.8
363.15 K, 120000 kPa	–	1710
363.15 K, 130000 kPa	–	1739.2
363.15 K, 140000 kPa	–	1767.5
363.15 K, 150000 kPa	–	1795.5
373.15 K, 100 kPa	800.89	1198.7
373.15 K, 5000 kPa	804.86	–
373.15 K, 10000 kPa	808.59	1255.2
373.15 K, 15000 kPa	812.16	–
373.15 K, 20000 kPa	–	1308.3
373.15 K, 25000 kPa	818.84	–
373.15 K, 30000 kPa	821.97	1356.6
373.15 K, 35000 kPa	825.09	–
373.15 K, 40000 kPa	828	1401.7
373.15 K, 45000 kPa	830.8	–
373.15 K, 50000 kPa	833.6	1444.5
373.15 K, 55000 kPa	836.29	–
373.15 K, 60000 kPa	838.88	1484.7
373.15 K, 70000 kPa	–	1522
373.15 K, 80000 kPa	–	1558.6
373.15 K, 90000 kPa	–	1592.9
373.15 K, 100000 kPa	–	1626.3
373.15 K, 110000 kPa	–	1657.9
373.15 K, 120000 kPa	–	1688.5
373.15 K, 130000 kPa	–	1718.7
373.15 K, 140000 kPa	–	1746.6
373.15 K, 150000 kPa	–	1774.6
